# Source: patent publication US6239111A, “In vivo method of improving survival rate of brain neurons” (Wakunaga Pharmaceutical Co., Ltd., priority 1996, dated 2001)
# Where two headings read alike, the source gives them in different places.
# How the values were obtained:
# hippocampus neurons = experiment: Inhibition of reduction in survival rate of rat embryonic hippocampus neurons in serum-free culture; assay type: cell-based; conditions: for viability at 1 µg/mL / viability at 0.1 µg/mL / viability at 0.01 µg/mL / viability at 0.001 µg/mL / viability at 0.0001 µg/mL: Rattus norvegicus, Neuron, 72 h, read-out: survival rate of neurons (control group taken as 100%); for viability at 1 µg/mL: 10^-6 g/ml; for inhibitory effect against reduction in survival rate of hippocampus neurons (in words): within the range of 1-1,000 ng/ml
# Excerpt: From a rat at the 18th day of pregnancy (having an 18-day old embryo) the uterus was aseptically removed under etherification, and the fetus was obtained. The whole brain was collected from the fetus. From the brain placed in an L-15 medium, the hippocampus was separated under a microscope and minced with a knife. […] The thus-isolated cells were suspended in Eagle's MEM medium supplemented with 10% fetal calf serum, and inoculated at a concentration of 4×10^4 cells/cm^2 into wells of a 48-well plate which had been coated with poly-L-lysin in advance. […] After three-days' additional incubation, the cells were fixed, stained, and the number of surviving cells in each well was counted.
# When the survival rate of the neurons in the control group was taken as 100%: […]
# [1] = tested on: neurites of hippocampus cells; experiment: Branching promotion effect on neurites of hippocampus cells; assay type: cell-based, rat; conditions: number of branches from the longest neurite, one and two days after addition, FIG. 1
# Protocol: The hippocampus cells obtained in a manner similar to that in Example 1 were incubated for 24 hours in a medium containing fetal calf serum, then for further 24 hours in a serum-free medium. Subsequently, compound (1-1) was added. When compound (1-1) was added, and at the times of one and two days after addition, photographs were taken of the same cells. The number of branches from the longest neurite was counted.
# [2] = Oral acute toxicity (LD50) in mice; conditions: mouse, in vivo, oral administration
# [3] = Oral acute toxicity (LD50) in rats; conditions: rat, in vivo, oral administration
# [4] = three days' incubation, serum-free medium
# [5] = 10^-7 g/ml, three days' incubation, serum-free medium
# [6] = 10^-8 g/ml, three days' incubation, serum-free medium
# [7] = 10^-9 g/ml, three days' incubation, serum-free medium
# [8] = 10^-10 g/ml, three days' incubation, serum-free medium
smiles,measurement,setting,value
C=CC[S+]([O-])C[C@H](N)C(=O)O (stereo partly drawn) [(1-2)],viability at 1 µg/mL,hippocampus neurons; [4],130 to 150%
same,viability at 0.1 µg/mL,hippocampus neurons; [5],130 to 150%
same,viability at 0.01 µg/mL,hippocampus neurons; [6],110 to 130%
same,viability at 0.001 µg/mL,hippocampus neurons; [7],110 to 130%
same,viability at 0.0001 µg/mL,hippocampus neurons; [8],90 to 110%
C=CCS(=O)(=O)C[C@H](N)C(=O)O [(1-3)],viability at 1 µg/mL,hippocampus neurons; [4],130 to 150%
same,viability at 0.1 µg/mL,hippocampus neurons; [5],110 to 130%
same,viability at 0.01 µg/mL,hippocampus neurons; [6],110 to 130%
same,viability at 0.001 µg/mL,hippocampus neurons; [7],110 to 130%
C=CCSSC[C@H](N)C(=O)O [(1-4)],viability at 1 µg/mL,hippocampus neurons; [4],90 to 110%
same,viability at 0.1 µg/mL,hippocampus neurons; [5],130 to 150%
same,viability at 0.01 µg/mL,hippocampus neurons; [6],110 to 130%
same,viability at 0.001 µg/mL,hippocampus neurons; [7],90 to 110%
same,viability at 0.0001 µg/mL,hippocampus neurons; [8],90 to 110%
C=CCSC[C@H](NC(C)=O)C(=O)O [(1-5)],viability at 1 µg/mL,hippocampus neurons; [4],110 to 130%
same,viability at 0.1 µg/mL,hippocampus neurons; [5],110 to 130%
same,viability at 0.01 µg/mL,hippocampus neurons; [6],110 to 130%
same,viability at 0.001 µg/mL,hippocampus neurons; [7],90 to 110%
C=CCSC[C@H](NC(=O)CC[C@H](N)C(=O)O)C(=O)O [(1-6)],viability at 1 µg/mL,hippocampus neurons; [4],130 to 150%
same,viability at 0.1 µg/mL,hippocampus neurons; [5],130 to 150%
same,viability at 0.01 µg/mL,hippocampus neurons; [6],130 to 150%
same,viability at 0.001 µg/mL,hippocampus neurons; [7],90 to 110%
same,viability at 0.0001 µg/mL,hippocampus neurons; [8],90 to 110%
C=CCSC[C@H](NC(=O)CC[C@H](N)C(=O)O)C(=O)NCC(=O)O [(1-7)],viability at 1 µg/mL,hippocampus neurons; [4],130 to 150%
same,viability at 0.1 µg/mL,hippocampus neurons; [5],130 to 150%
same,viability at 0.01 µg/mL,hippocampus neurons; [6],90 to 110%
same,viability at 0.001 µg/mL,hippocampus neurons; [7],90 to 110%
same,viability at 0.0001 µg/mL,hippocampus neurons; [8],90 to 110%
C=CCSCC[C@H](N)C(=O)O [(1-9)],viability at 1 µg/mL,hippocampus neurons; [4],90 to 110%
same,viability at 0.1 µg/mL,hippocampus neurons; [5],110 to 130%
same,viability at 0.01 µg/mL,hippocampus neurons; [6],90 to 110%
C=CCS [(1-10)],viability at 1 µg/mL,hippocampus neurons; [4],110 to 130%
same,viability at 0.1 µg/mL,hippocampus neurons; [5],110 to 130%
same,viability at 0.01 µg/mL,hippocampus neurons; [6],110 to 130%
same,viability at 0.001 µg/mL,hippocampus neurons; [7],90 to 110%
same,viability at 0.0001 µg/mL,hippocampus neurons; [8],90 to 110%
C=CCSCC=C [(1-11)],viability at 1 µg/mL,hippocampus neurons; [4],110 to 130%
same,viability at 0.1 µg/mL,hippocampus neurons; [5],110 to 130%
same,viability at 0.01 µg/mL,hippocampus neurons; [6],110 to 130%
same,viability at 0.001 µg/mL,hippocampus neurons; [7],90 to 110%
same,viability at 0.0001 µg/mL,hippocampus neurons; [8],90 to 110%
C=CCSSCC=C [(1-12)],viability at 0.0001 µg/mL,hippocampus neurons,90 to 110%
same,viability at 0.001 µg/mL,hippocampus neurons,90 to 110%
same,viability at 0.01 µg/mL,hippocampus neurons,110 to 130%
same,viability at 0.1 µg/mL,hippocampus neurons,110 to 130%
C=CCSC(CC(=O)O)C(=O)O (stereo not drawn) [(1-13)],viability at 1 µg/mL,hippocampus neurons; [4],110 to 130%
same,viability at 0.1 µg/mL,hippocampus neurons; [5],110 to 130%
same,viability at 0.01 µg/mL,hippocampus neurons; [6],90 to 110%
C=CCSc1ccccc1C(=O)O [(1-14)],viability at 1 µg/mL,hippocampus neurons; [4],110 to 130%
same,viability at 0.1 µg/mL,hippocampus neurons; [5],110 to 130%
same,viability at 0.01 µg/mL,hippocampus neurons; [6],90 to 110%
C=CCSc1nc2ccccc2o1 [(1-15)],viability at 1 µg/mL,hippocampus neurons; [4],110 to 130%
same,viability at 0.1 µg/mL,hippocampus neurons; [5],110 to 130%
same,viability at 0.01 µg/mL,hippocampus neurons; [6],90 to 110%
C=CCSC[C@H](N)C(=O)O [Compound (1-1)],branching promotion effect on neurites,[1],confirmed to have branching promotion effect on neurites
same,LD50,[2],≥ 1000 mg/kg
same,LD50,[3],≥ 1000 mg/kg
same,viability at 1 µg/mL,hippocampus neurons; [4],130 to 150%
same,viability at 0.1 µg/mL,hippocampus neurons; [5],130 to 150%
same,viability at 0.01 µg/mL,hippocampus neurons; [6],110 to 130%
same,viability at 0.001 µg/mL,hippocampus neurons; [7],110 to 130%
same,viability at 0.0001 µg/mL,hippocampus neurons; [8],90 to 110%
"N[C@@H](CS)C(=O)O [L-cysteine, reference compound]",inhibitory effect against reduction in survival rate of hippocampus neurons (in words),hippocampus neurons,No inhibitory effect
"C=CCNC(N)=O [N-allyl urea, reference compound]",inhibitory effect against reduction in survival rate of hippocampus neurons (in words),hippocampus neurons,No inhibitory effect
"C=CCOC(=O)[C@@H](N)CS [O-allyl-L-cysteine, reference compound]",inhibitory effect against reduction in survival rate of hippocampus neurons (in words),hippocampus neurons,No inhibitory effect
"CC=CSC[C@H](N)C(=O)O [S-(1-propenyl)-L-cysteine, reference compound]",inhibitory effect against reduction in survival rate of hippocampus neurons (in words),hippocampus neurons,No inhibitory effect
"C=CCCSC[C@H](N)C(=O)O [S-(3-butenyl)-L-cysteine, reference compound]",inhibitory effect against reduction in survival rate of hippocampus neurons (in words),hippocampus neurons,No inhibitory effect
"CSC[C@H](N)C(=O)O [S-methyl-L-cysteine, reference compound]",inhibitory effect against reduction in survival rate of hippocampus neurons (in words),hippocampus neurons,No inhibitory effect
"C[S+]([O-])C[C@H](N)C(=O)O (stereo partly drawn) [S-methyl-L-cysteinesulfoxide, reference compound]",inhibitory effect against reduction in survival rate of hippocampus neurons (in words),hippocampus neurons,No inhibitory effect
"C#CCSC[C@H](N)C(=O)O [S-propargyl-L-cysteine, reference compound]",inhibitory effect against reduction in survival rate of hippocampus neurons (in words),hippocampus neurons,No inhibitory effect
"CCCSC[C@H](N)C(=O)O [S-propyl-L-cysteine, reference compound]",inhibitory effect against reduction in survival rate of hippocampus neurons (in words),hippocampus neurons,No inhibitory effect
"C=CCO [allyl alcohol, reference compound]",inhibitory effect against reduction in survival rate of hippocampus neurons (in words),hippocampus neurons,No inhibitory effect
"C=CCNCC(=O)O [allyl glycine, reference compound]",inhibitory effect against reduction in survival rate of hippocampus neurons (in words),hippocampus neurons,No inhibitory effect
"C=CCOCC=C [diallyl ether, reference compound]",inhibitory effect against reduction in survival rate of hippocampus neurons (in words),hippocampus neurons,No inhibitory effect
"CCCSSCCC [dipropyldisulfide, reference compound]",inhibitory effect against reduction in survival rate of hippocampus neurons (in words),hippocampus neurons,No inhibitory effect
"CCCSCCC [dipropylsulfide, reference compound]",inhibitory effect against reduction in survival rate of hippocampus neurons (in words),hippocampus neurons,No inhibitory effect
"C=CCc1ccc(O)c(OC)c1 [eugenol, reference compound]",inhibitory effect against reduction in survival rate of hippocampus neurons (in words),hippocampus neurons,No inhibitory effect
"CCCSC[C@H](NC(=O)CC[C@H](N)C(=O)O)C(=O)O [gamma-glutamyl-S-propyl-L-cysteine, reference compound]",inhibitory effect against reduction in survival rate of hippocampus neurons (in words),hippocampus neurons,No inhibitory effect
